Test results reported in patent US20130267551A1, “SUBSTITUTED HYDROGENATED THIENO-PYRROLO[3,2-C]PYRIDINE, LIGANDS, A PHARMACEUTICAL COMPOSITION AND A METHOD FOR USING THE ABOVE” (ALLA CHEM, LLC, priority 2010, published 2013).
Structures can show the parent of a compound that is named as a salt.

How the values were obtained:
[1] = molecular target: Dopaminergic D3 (Homo sapiens, UniProt P35462); experiment: competitive radioligand binding, Dopaminergic D3; conditions: compound concentration of 1 μM
Protocol: (§1) Profiles of pharmacological activity of thieno-pyrrolo[3,2-c]pyridines of the general formula 1. Biological activity test of compounds of the general formula 1 was carried out in the setting of competitive radioligand binding [I. Okun, S. Tkachenko, A. Khvat, et al., Current Alzheimer Research, 7(2), 97-112 (2010)], using a wide range of therapeutic targets including G-protein coupled receptors (GPCR), ion channels and neuromediator transporters. The tested activity was determined by quantitative measurement of radio-labelled ligand displacement by tested compounds of the general formula 1 at their concentration of 1 μM.

[2] = molecular target: Dopaminergic D2L (Homo sapiens, UniProt P14416); experiment: competitive radioligand binding, Dopaminergic D2L; conditions: compound concentration of 1 μM
Protocol: as §1

[3] = tested on: Adrenergic α1A; experiment: competitive radioligand binding, Adrenergic α1A; conditions: compound concentration of 1 μM
Protocol: as §1

[4] = tested on: Serotoninergic 5-HT1B; experiment: competitive radioligand binding, Serotoninergic 5-HT1B; conditions: compound concentration of 1 μM
Protocol: as §1

[5] = molecular target: T1, Serotoninergic 5-HT1A (Homo sapiens, UniProt P08908); experiment: competitive radioligand binding, Serotoninergic 5-HT1A; conditions: compound concentration of 1 μM
T1 sequence (P08908 1-422): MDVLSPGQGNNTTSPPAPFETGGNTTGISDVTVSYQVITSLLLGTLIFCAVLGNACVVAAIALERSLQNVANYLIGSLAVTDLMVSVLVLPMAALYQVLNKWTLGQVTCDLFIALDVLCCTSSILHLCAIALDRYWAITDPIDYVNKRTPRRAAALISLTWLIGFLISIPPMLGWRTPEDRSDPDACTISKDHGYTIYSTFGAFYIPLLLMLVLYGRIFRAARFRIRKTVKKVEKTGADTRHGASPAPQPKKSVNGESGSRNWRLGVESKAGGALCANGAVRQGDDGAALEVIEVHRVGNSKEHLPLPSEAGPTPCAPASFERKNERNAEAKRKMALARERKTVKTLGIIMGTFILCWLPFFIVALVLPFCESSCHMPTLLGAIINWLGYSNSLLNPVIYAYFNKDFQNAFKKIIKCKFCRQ
Protocol: as §1

[6] = molecular target: Serotoninergic 5-HT2A (Homo sapiens, UniProt P28223); experiment: competitive radioligand binding, Serotoninergic 5-HT2A; conditions: compound concentration of 1 μM
Protocol: as §1

[7] = molecular target: T2, Adrenergic α2A (Homo sapiens, UniProt P08913); experiment: competitive radioligand binding, Adrenergic α2A; conditions: compound concentration of 1 μM
T2 sequence (P08913 1-465): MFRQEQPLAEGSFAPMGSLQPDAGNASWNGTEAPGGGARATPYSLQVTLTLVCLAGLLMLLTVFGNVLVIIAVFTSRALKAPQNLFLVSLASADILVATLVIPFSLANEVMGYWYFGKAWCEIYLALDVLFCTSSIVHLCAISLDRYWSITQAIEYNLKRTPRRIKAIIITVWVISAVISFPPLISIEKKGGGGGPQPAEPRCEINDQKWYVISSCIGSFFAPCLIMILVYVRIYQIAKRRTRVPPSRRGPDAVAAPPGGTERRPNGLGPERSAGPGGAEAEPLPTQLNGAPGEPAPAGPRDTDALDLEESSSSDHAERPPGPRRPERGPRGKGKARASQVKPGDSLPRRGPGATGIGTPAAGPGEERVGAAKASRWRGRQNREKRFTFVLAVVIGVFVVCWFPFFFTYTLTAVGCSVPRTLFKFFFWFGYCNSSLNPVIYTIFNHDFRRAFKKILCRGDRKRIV
Protocol: as §1

[8] = molecular target: Histaminergic H3 (Homo sapiens, UniProt Q9Y5N1); experiment: competitive radioligand binding, Histaminergic H3; conditions: compound concentration of 1 μM; in % (unit assumed)
Protocol: as §1

[9] = molecular target: Serotoninergic 5-HT7 (Homo sapiens, UniProt P34969); experiment: competitive radioligand binding, Serotoninergic 5-HT7; conditions: compound concentration of 1 μM
Protocol: as §1

[10] = tested on: Adrenergic α1B; experiment: competitive radioligand binding, Adrenergic α1B; conditions: compound concentration of 1 μM
Protocol: as §1

[11] = molecular target: T3, Adrenergic α1D (Homo sapiens, UniProt P25100); experiment: competitive radioligand binding, Adrenergic α1D; conditions: compound concentration of 1 μM
T3 sequence (P25100 1-572): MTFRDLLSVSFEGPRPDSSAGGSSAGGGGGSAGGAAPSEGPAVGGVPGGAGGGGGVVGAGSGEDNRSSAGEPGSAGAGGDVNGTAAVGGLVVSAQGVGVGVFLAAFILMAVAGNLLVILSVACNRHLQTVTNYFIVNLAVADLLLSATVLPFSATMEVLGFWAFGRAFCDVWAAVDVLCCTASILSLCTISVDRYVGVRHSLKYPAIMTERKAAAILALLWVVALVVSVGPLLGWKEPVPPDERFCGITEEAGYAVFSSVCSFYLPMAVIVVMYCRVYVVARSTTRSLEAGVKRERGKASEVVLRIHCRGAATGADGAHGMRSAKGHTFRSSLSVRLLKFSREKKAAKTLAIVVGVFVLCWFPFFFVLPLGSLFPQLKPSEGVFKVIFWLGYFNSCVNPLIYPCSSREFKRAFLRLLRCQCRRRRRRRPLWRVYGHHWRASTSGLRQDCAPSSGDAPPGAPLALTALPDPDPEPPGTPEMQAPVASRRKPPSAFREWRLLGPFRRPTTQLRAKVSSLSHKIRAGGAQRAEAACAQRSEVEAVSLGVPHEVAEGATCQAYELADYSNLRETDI
Protocol: as §1

[12] = molecular target: Serotoninergic 5-HT2B (Homo sapiens, UniProt P41595); experiment: competitive radioligand binding, Serotoninergic 5-HT2B; conditions: compound concentration of 1 μM
Protocol: as §1

[13] = molecular target: Dopaminergic D1 (Homo sapiens, UniProt P21728); experiment: competitive radioligand binding, Dopaminergic D1; conditions: compound concentration of 1 μM
Protocol: as §1

[14] = molecular target: Histaminergic H2 (Homo sapiens, UniProt P25021); experiment: competitive radioligand binding, Histaminergic H2; conditions: compound concentration of 1 μM
Protocol: as §1

[15] = molecular target: Dopaminergic D2S (Homo sapiens, UniProt P14416); experiment: competitive radioligand binding, Dopaminergic D2S; conditions: compound concentration of 1 μM
Protocol: as §1

[16] = tested on: Therapeutic targets (Adrenergic, Dopaminergic, Histaminergic, Serotoninergic); experiment: Profiles of pharmacological activity in competitive radioligand binding (whole panel); conditions: 1 μM, grades not defined
Protocol: as §1

[17] = molecular target: Histaminergic H1 (Homo sapiens, UniProt P35367); experiment: competitive radioligand binding, Histaminergic H1; conditions: compound concentration of 1 μM
Protocol: as §1

[18] = molecular target: Serotoninergic 5-HT6 (Homo sapiens, UniProt P50406); experiment: competitive radioligand binding, Serotoninergic 5-HT6; conditions: compound concentration of 1 μM
Protocol: as §1

[19] = molecular target: T4, Serotoninergic 5-HT2C (Homo sapiens, UniProt P28335); experiment: competitive radioligand binding, Serotoninergic 5-HT2C; conditions: compound concentration of 1 μM
T4 sequence (P28335 33-458): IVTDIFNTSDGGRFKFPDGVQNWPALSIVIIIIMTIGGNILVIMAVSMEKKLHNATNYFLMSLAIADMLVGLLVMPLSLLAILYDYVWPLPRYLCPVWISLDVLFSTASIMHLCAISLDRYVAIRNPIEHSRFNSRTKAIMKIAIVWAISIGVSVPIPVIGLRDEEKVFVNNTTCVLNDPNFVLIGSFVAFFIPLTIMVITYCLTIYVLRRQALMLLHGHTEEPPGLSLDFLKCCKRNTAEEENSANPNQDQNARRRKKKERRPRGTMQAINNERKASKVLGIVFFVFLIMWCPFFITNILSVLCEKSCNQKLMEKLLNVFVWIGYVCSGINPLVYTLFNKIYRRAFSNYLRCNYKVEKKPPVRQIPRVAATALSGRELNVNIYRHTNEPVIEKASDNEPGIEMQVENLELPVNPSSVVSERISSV
Protocol: as §1

[20] = molecular target: T5, Dopaminergic D4.2 (Homo sapiens, UniProt P21917, DEL265-296); experiment: competitive radioligand binding, Dopaminergic D4.2; conditions: compound concentration of 1 μM
T5 sequence (P21917 with tags, fused parts or gaps DEL265-296): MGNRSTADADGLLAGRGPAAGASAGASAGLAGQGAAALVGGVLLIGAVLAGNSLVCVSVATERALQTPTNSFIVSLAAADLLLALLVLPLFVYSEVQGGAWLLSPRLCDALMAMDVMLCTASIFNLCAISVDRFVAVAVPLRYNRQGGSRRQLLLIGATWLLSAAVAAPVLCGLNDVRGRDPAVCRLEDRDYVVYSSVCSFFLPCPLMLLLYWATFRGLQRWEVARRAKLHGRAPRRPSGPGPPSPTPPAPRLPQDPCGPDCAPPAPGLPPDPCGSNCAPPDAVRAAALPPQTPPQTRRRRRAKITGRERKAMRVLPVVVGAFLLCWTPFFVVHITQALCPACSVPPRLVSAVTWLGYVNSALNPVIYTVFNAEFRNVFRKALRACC
Protocol: as §1

[21] = tested on: Mice of SHK line; experiment: Prepulse inhibition of startle response in mice (Apomorphine); conditions: 1 mg/kg, intraperitoneally 60 minutes before the test

Dopaminergic D3, sequence (P35462 whole entry): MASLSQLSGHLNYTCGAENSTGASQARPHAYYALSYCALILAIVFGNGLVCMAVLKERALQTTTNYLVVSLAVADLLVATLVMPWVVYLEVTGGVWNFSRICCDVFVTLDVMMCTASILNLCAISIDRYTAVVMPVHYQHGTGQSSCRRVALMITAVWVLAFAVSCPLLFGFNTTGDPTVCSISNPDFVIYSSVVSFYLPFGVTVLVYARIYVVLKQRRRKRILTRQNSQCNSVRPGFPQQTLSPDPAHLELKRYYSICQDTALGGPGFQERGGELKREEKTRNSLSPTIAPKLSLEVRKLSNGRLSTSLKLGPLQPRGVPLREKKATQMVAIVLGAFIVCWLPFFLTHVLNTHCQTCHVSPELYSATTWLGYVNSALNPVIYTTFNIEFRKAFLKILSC
Serotoninergic 5-HT7, sequence (P34969 whole entry): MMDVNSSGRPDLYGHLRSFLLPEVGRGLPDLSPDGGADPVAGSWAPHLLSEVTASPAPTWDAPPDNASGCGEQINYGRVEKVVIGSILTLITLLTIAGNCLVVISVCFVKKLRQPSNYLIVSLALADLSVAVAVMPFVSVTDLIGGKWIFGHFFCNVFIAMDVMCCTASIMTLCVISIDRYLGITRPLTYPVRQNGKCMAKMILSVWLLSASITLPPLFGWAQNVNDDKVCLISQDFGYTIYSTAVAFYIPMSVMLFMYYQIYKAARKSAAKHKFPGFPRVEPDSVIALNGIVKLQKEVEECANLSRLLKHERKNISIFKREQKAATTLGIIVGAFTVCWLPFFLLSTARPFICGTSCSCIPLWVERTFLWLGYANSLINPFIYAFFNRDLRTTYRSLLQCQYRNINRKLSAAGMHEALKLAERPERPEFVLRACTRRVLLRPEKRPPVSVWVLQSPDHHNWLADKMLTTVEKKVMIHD
Serotoninergic 5-HT6, sequence (P50406 whole entry): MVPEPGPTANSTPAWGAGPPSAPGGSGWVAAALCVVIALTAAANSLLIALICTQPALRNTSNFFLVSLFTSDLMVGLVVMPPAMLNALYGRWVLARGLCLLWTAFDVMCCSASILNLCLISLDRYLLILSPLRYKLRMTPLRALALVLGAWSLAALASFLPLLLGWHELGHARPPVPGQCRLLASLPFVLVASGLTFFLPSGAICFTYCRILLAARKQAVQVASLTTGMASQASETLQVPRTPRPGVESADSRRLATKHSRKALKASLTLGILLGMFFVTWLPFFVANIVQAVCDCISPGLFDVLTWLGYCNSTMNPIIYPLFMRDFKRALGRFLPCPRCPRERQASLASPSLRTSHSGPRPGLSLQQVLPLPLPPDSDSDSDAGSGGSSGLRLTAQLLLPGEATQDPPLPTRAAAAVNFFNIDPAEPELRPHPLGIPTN
Histaminergic H2, sequence (P25021 whole entry): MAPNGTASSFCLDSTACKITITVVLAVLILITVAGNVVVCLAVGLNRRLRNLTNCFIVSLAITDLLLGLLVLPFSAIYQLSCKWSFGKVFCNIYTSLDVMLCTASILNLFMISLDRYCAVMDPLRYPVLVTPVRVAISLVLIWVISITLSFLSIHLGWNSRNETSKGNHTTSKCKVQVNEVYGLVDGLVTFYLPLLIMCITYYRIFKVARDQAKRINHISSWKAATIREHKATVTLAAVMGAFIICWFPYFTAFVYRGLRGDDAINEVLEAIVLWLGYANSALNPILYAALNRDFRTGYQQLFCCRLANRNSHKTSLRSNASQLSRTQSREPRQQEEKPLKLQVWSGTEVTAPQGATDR
Histaminergic H1, sequence (P35367 whole entry): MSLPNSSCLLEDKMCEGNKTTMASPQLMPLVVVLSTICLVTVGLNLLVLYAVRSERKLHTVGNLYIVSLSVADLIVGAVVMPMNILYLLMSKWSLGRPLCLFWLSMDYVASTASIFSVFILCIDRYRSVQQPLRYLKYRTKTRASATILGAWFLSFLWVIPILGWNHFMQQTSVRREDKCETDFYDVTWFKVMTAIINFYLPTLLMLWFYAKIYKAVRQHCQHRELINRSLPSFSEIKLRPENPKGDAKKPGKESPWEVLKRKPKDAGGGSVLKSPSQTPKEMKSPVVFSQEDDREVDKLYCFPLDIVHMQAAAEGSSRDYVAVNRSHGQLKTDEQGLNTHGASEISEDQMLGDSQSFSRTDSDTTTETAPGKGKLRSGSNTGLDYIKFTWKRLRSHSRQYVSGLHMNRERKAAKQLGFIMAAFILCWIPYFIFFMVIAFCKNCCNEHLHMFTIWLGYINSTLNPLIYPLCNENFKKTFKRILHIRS
Dopaminergic D2L, sequence (P14416 whole entry): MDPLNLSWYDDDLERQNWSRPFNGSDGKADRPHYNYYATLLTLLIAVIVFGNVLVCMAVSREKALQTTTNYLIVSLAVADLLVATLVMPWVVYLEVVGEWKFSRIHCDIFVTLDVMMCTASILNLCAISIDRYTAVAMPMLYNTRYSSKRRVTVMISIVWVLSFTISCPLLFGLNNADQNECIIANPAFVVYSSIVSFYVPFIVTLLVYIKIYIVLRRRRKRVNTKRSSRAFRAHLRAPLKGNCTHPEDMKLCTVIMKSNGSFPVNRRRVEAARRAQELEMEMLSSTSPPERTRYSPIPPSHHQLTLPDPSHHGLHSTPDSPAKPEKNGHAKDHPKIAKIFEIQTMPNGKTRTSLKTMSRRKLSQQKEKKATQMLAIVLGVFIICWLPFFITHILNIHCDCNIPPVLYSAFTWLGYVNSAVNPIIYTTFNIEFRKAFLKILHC
Dopaminergic D2S, sequence (P14416 1-414 isoform P14416-2): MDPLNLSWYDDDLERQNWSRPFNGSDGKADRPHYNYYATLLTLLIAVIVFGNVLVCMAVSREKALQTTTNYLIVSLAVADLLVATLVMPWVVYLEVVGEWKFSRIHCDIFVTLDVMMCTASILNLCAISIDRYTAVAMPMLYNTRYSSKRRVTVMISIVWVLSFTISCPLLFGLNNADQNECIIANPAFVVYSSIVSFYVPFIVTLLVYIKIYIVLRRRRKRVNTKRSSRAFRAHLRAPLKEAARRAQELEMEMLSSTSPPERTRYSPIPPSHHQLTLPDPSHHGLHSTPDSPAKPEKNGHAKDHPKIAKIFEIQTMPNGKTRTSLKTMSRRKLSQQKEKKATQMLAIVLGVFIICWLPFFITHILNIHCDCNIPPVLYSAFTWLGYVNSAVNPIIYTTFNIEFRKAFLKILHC
Dopaminergic D1, sequence (P21728 whole entry): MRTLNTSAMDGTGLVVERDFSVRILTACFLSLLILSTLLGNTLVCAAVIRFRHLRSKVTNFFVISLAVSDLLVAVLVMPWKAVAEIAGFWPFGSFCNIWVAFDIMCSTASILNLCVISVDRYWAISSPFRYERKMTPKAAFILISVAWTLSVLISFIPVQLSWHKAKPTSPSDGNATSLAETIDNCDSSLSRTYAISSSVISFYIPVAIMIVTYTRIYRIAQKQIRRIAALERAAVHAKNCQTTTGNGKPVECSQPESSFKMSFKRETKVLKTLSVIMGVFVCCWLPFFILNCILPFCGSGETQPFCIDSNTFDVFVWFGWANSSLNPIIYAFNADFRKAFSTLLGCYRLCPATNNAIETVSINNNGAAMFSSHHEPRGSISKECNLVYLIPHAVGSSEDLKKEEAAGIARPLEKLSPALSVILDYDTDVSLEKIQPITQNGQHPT
Serotoninergic 5-HT2A, sequence (P28223 whole entry): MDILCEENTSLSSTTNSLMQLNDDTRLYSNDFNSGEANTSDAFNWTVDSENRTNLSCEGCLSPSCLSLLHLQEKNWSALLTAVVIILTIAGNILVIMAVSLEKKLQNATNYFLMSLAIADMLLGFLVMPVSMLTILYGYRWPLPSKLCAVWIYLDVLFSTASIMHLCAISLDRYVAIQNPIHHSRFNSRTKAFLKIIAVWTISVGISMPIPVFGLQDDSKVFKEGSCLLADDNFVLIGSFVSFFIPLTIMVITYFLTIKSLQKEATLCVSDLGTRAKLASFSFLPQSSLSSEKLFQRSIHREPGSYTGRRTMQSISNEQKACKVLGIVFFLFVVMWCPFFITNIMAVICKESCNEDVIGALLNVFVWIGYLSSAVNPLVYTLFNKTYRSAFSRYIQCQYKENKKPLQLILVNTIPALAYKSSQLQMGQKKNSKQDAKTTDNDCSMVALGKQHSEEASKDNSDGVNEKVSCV
Serotoninergic 5-HT2B, sequence (P41595 whole entry): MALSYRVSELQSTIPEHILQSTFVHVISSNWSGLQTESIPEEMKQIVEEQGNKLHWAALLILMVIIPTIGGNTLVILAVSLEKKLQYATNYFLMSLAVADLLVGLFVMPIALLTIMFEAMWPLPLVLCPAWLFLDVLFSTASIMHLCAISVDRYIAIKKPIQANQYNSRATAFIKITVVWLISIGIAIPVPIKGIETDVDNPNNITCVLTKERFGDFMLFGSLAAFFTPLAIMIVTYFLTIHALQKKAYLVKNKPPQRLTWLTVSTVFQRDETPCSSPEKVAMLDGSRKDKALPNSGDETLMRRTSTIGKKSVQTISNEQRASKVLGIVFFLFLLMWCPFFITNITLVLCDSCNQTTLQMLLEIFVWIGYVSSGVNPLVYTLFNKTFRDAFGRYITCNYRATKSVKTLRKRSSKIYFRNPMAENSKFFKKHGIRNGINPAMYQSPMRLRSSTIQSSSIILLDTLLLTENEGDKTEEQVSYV
Histaminergic H3, sequence (Q9Y5N1 whole entry): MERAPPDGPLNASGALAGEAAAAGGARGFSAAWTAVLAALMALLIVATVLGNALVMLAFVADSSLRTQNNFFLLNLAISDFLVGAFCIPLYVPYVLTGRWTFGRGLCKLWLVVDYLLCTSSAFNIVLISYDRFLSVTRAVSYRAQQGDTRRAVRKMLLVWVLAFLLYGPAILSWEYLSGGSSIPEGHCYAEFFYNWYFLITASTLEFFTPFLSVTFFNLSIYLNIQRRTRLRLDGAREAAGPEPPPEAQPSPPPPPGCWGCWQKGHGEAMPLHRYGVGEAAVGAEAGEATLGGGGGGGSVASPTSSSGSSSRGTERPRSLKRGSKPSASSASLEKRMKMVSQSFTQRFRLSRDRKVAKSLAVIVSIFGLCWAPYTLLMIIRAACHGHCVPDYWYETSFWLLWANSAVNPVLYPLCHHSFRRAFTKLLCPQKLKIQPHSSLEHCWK

| SMILES | radio-labelled ligand displacement, Dopaminergic D3 [1] [%] | radio-labelled ligand displacement, Dopaminergic D2L [2] [%] | radio-labelled ligand displacement, Adrenergic α1A [3] [%] | radio-labelled ligand displacement, Serotoninergic 5-HT1B [4] [%] | radio-labelled ligand displacement, Serotoninergic 5-HT1A [5] [%] | radio-labelled ligand displacement, Serotoninergic 5-HT2A [6] [%] | radio-labelled ligand displacement, Adrenergic α2A [7] [%] | radio-labelled ligand displacement, Histaminergic H3 [8] | radio-labelled ligand displacement, Serotoninergic 5-HT7 [9] [%] | radio-labelled ligand displacement, Adrenergic α1B [10] [%] | radio-labelled ligand displacement, Adrenergic α1D [11] [%] | radio-labelled ligand displacement, Serotoninergic 5-HT2B [12] [%] | radio-labelled ligand displacement, Dopaminergic D1 [13] [%] | radio-labelled ligand displacement, Histaminergic H2 [14] [%] | radio-labelled ligand displacement, Dopaminergic D2S [15] [%] | grade of the activity profile (poor / satisfactory / good) [16] | radio-labelled ligand displacement, Histaminergic H1 [17] [%] | radio-labelled ligand displacement, Serotoninergic 5-HT6 [18] [%] | radio-labelled ligand displacement, Serotoninergic 5-HT2C [19] [%] | radio-labelled ligand displacement, Dopaminergic D4.2 [20] [%] | other results |
| --- | --- | --- | --- | --- | --- | --- | --- | --- | --- | --- | --- | --- | --- | --- | --- | --- | --- | --- | --- | --- | --- |
| Cc1csc2c1c1c(n2CCCc2ccccc2)CCN(C)C1 [3.12(1)•HCl] | 75 | 82 | 98 | 54 | 43 | 99 | 101 | 11 | 98 | 99 | 92 | 91 | 57 | 99 | 89 | good | 98 | 101 | 97 | 73 |  |
| Cc1ccc(CCCn2c3c(c4c(Cl)csc42)CN(C)CC3)cc1 [3.12(5)•HCl, 5-methyl-8-[(p-tolyl)propyl]-3-chloro-4,5,6,7-tetrahydro-5H-thieno[3′,2′:4,5]pyrrolo[3,2-c]pyridine] | 23 | 35 | 79 | 30 | 18 | 97 | 91 | −3 | 96 | 89 | 86 | 63 | 47 | 57 | 29 | good | 89 | 99 | 94 | 33 |  |
| CN1CCc2c(c3cc(Cl)sc3n2CCCc2cccc(F)c2)C1 [3.12(6)•HCl, 5-methyl-8-[(3-fluorophenyl)propyl]-2-chloro-4,5,6,7-tetrahydro-5H-thieno[3′,2′:4,5]pyrrolo[3,2-c]pyridine] | 69 | 81 | 84 | 43 | 50 | 97 | 91 | −1 | 95 | 96 | 83 | 91 | 63 | 91 | 77 | good | 97 | 84 | 98 | 68 |  |
| O=C(CCCN1CCC(O)(c2ccc(Cl)cc2)CC1)c1ccc(F)cc1 [Haloperidol, reference compound] |  |  |  |  |  |  |  |  |  |  |  |  |  |  |  |  |  |  |  |  | Antipsychotic activity: disturbance of prepulse inhibition of startle caused by Apomorphine [21]: prevented disturbance of prepulse inhibition of startle caused by Apomorphine |
